Data taken from PubChem BioAssay (NCI).
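Protocol summary: plate cells (96-well), add compound at 5 concentrations, incubate 48 h, interpolate endpoints linearly. GI50 marks 50% less growth. Definition used: TGI = concentration required for complete inhibition of growth.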

How the values were obtained:
Experiment in all cases: inhibition of tumour cell growth, NCI panel, 48 h; in the data active = GI50 below about 0.43 µM; inactive = the rest
CCRF-CEM leukemia = system: CCRF-CEM leukemia
DU-145 prostate = system: DU-145 prostate
HCC-2998 colon = system: HCC-2998 colon
HCT-15 colon = system: HCT-15 colon
HS 578T breast = system: HS 578T breast
HT29 colon = system: HT29 colon
MCF7 breast = system: MCF7 breast
NCI-H460 lung = system: NCI-H460 lung
SNB-19 CNS = system: SNB-19 CNS
SR leukemia = system: SR leukemia
TK-10 renal = system: TK-10 renal
UO-31 renal = system: UO-31 renal
NCI-H226 lung = system: NCI-H226 lung

COC(=O)C1CCN(C(=O)OC(C)(C)C)CC1
> 100 µM: TGI (CCRF-CEM leukemia) | TGI (DU-145 prostate) | TGI (HCC-2998 colon) | TGI (HCT-15 colon) | TGI (HS 578T breast) | TGI (HT29 colon) | TGI (MCF7 breast) | TGI (NCI-H460 lung) | TGI (SNB-19 CNS) | TGI (SR leukemia) | TGI (TK-10 renal) | TGI (UO-31 renal)

COC(=O)C1CCC(=S)N1C(=O)OCc1ccccc1 (configuration not stated)
> 100 µM: TGI (CCRF-CEM leukemia) | TGI (DU-145 prostate) | TGI (HCC-2998 colon) | TGI (HCT-15 colon) | TGI (HS 578T breast) | TGI (HT29 colon) | TGI (MCF7 breast) | TGI (NCI-H460 lung) | TGI (SNB-19 CNS) | TGI (SR leukemia) | TGI (TK-10 renal) | TGI (UO-31 renal)

Cc1cc(Cl)nc2nc(Cl)c(N)cc12
13.6 µM: TGI (TK-10 renal)
> 24.3 µM: TGI (HS 578T breast)
5.43 µM: TGI (NCI-H460 lung)
51.7 µM: TGI (NCI-H226 lung)
> 22.2 µM: TGI (MCF7 breast)
3.59 µM: TGI (HCC-2998 colon)
18 µM: TGI (DU-145 prostate)
9.54 µM: TGI (UO-31 renal)
> 25.2 µM: TGI (SR leukemia)
> 19.7 µM: TGI (CCRF-CEM leukemia)
9.57 µM: TGI (SNB-19 CNS)
4.6 µM: TGI (HCT-15 colon)

N#CC1(C#N)NC(c2ccccc2)C(C#N)(C#N)NC1c1ccccc1 (configuration not stated)
> 100 µM: TGI (CCRF-CEM leukemia) | TGI (DU-145 prostate) | TGI (HCC-2998 colon) | TGI (HCT-15 colon) | TGI (HS 578T breast) | TGI (HT29 colon) | TGI (MCF7 breast) | TGI (NCI-H226 lung) | TGI (NCI-H460 lung) | TGI (SNB-19 CNS) | TGI (TK-10 renal) | TGI (UO-31 renal)

Nc1ccc2[nH]c(-c3cccc(C(F)(F)F)c3)cc(=O)c2c1
> 100 µM: TGI (DU-145 prostate) | TGI (HCC-2998 colon) | TGI (HCT-15 colon) | TGI (HT29 colon) | TGI (MCF7 breast) | TGI (NCI-H460 lung) | TGI (SNB-19 CNS) | TGI (TK-10 renal) | TGI (UO-31 renal)
65.6 µM: TGI (HS 578T breast)
inactive: GI50 (DU-145 prostate) 43.6 µM
97.8 µM: TGI (SR leukemia)
59.9 µM: TGI (CCRF-CEM leukemia)

COc1cccc(/C=N/NC(=O)CSCC(=O)N/N=C/c2cccc(OC)c2OC)c1OC
> 100 µM: TGI (DU-145 prostate) | TGI (HCC-2998 colon) | TGI (HCT-15 colon) | TGI (HS 578T breast) | TGI (HT29 colon) | TGI (MCF7 breast) | TGI (NCI-H226 lung) | TGI (NCI-H460 lung) | TGI (SNB-19 CNS) | TGI (SR leukemia) | TGI (TK-10 renal) | TGI (UO-31 renal)

CC(=O)Nc1ccc2nc(-c3ccccn3)c(-c3ccccn3)nc2c1
> 100 µM: TGI (CCRF-CEM leukemia) | TGI (DU-145 prostate) | TGI (HCC-2998 colon) | TGI (HCT-15 colon) | TGI (HS 578T breast) | TGI (MCF7 breast) | TGI (NCI-H226 lung) | TGI (NCI-H460 lung) | TGI (SNB-19 CNS) | TGI (SR leukemia) | TGI (TK-10 renal) | TGI (UO-31 renal)

COc1cc(-c2nc3ccc(N4CCN(C)CC4)cc3[nH]2)c(OC)c2[nH]c(COC(C)=O)nc12
95.5 µM: TGI (DU-145 prostate)
> 100 µM: TGI (CCRF-CEM leukemia) | TGI (HCT-15 colon) | TGI (HS 578T breast) | TGI (HT29 colon) | TGI (MCF7 breast) | TGI (NCI-H226 lung) | TGI (NCI-H460 lung) | TGI (SNB-19 CNS) | TGI (TK-10 renal) | TGI (UO-31 renal)
73 µM: TGI (SR leukemia)

O=C(Cc1ccccc1F)NC1=C(Cl)C(=O)c2ccccc2C1=O
23.8 µM: TGI (HS 578T breast)
21.4 µM: TGI (MCF7 breast)
7.36 µM: TGI (CCRF-CEM leukemia)
19.5 µM: TGI (HT29 colon)
8.98 µM: TGI (UO-31 renal)
5.29 µM: TGI (TK-10 renal)
25.2 µM: TGI (SNB-19 CNS)
6.7 µM: TGI (NCI-H226 lung)
21.8 µM: TGI (DU-145 prostate)
15.2 µM: TGI (HCC-2998 colon)
13.3 µM: TGI (HCT-15 colon)
21.7 µM: TGI (NCI-H460 lung)

COCCN(CCNC(=O)c1cccc2c(N)c3cccc(C)c3nc12)CCOC
> 26.2 µM: TGI (CCRF-CEM leukemia)
10.2 µM: TGI (HT29 colon)
9.64 µM: TGI (DU-145 prostate)
13 µM: TGI (HCT-15 colon)
6.15 µM: TGI (NCI-H226 lung)
23.3 µM: TGI (MCF7 breast)
7.11 µM: TGI (NCI-H460 lung)
22.3 µM: TGI (SNB-19 CNS)
1.72 µM: TGI (HCC-2998 colon)
9.86 µM: TGI (HS 578T breast)
16.6 µM: TGI (TK-10 renal)

CCOC(=O)c1nc2ccc(C(F)(F)F)cc2nc1Nc1cc(OC)c(OC)c(OC)c1
> 100 µM: TGI (CCRF-CEM leukemia) | TGI (DU-145 prostate) | TGI (HCC-2998 colon) | TGI (HCT-15 colon) | TGI (HS 578T breast) | TGI (HT29 colon) | TGI (MCF7 breast) | TGI (NCI-H460 lung) | TGI (SNB-19 CNS) | TGI (SR leukemia) | TGI (TK-10 renal) | TGI (UO-31 renal)

CCNC(=O)c1cc(Cl)ccc1NC(=O)C12CC3CC(CC(C3)C1)C2
88.9 µM: TGI (DU-145 prostate)
56.4 µM: TGI (UO-31 renal)
> 100 µM: TGI (CCRF-CEM leukemia) | TGI (HCT-15 colon) | TGI (HS 578T breast) | TGI (MCF7 breast) | TGI (NCI-H226 lung) | TGI (NCI-H460 lung) | TGI (SNB-19 CNS) | TGI (TK-10 renal)
37.3 µM: TGI (HT29 colon)

CCc1c2c(cc3c1CC1(C3)Cc3cc4c(c(C(=O)OC)c3C1)CCCC4)CCCC2 (configuration not stated)
46.6 µM: TGI (HS 578T breast)
> 100 µM: TGI (CCRF-CEM leukemia) | TGI (HCC-2998 colon) | TGI (HCT-15 colon) | TGI (HT29 colon) | TGI (MCF7 breast) | TGI (NCI-H226 lung) | TGI (SR leukemia) | TGI (TK-10 renal) | TGI (UO-31 renal)

CCCCCCCCCCCCOP(=O)(O)OP(=O)(O)OCC1OC(n2ccc(N)nc2=O)CC1O (configuration not stated)
> 100 µM: TGI (CCRF-CEM leukemia) | TGI (HCC-2998 colon) | TGI (HCT-15 colon) | TGI (HS 578T breast) | TGI (HT29 colon) | TGI (MCF7 breast) | TGI (NCI-H226 lung) | TGI (NCI-H460 lung) | TGI (SNB-19 CNS) | TGI (TK-10 renal) | TGI (UO-31 renal)

C=CC(O)(CBr)CCC(Br)C(=C)C (configuration not stated)
> 10 µM: TGI (CCRF-CEM leukemia) | TGI (DU-145 prostate) | TGI (HCC-2998 colon) | TGI (HCT-15 colon) | TGI (HS 578T breast) | TGI (HT29 colon) | TGI (MCF7 breast) | TGI (NCI-H226 lung) | TGI (NCI-H460 lung) | TGI (SNB-19 CNS) | TGI (TK-10 renal)

CC(Oc1ccccc1Cl)C(=O)NN1C(=O)CC(=O)N(c2ccccc2)C1=S (configuration not stated)
> 100 µM: TGI (DU-145 prostate) | TGI (HCC-2998 colon) | TGI (HCT-15 colon) | TGI (HS 578T breast) | TGI (HT29 colon) | TGI (MCF7 breast) | TGI (NCI-H226 lung) | TGI (NCI-H460 lung) | TGI (SNB-19 CNS) | TGI (SR leukemia) | TGI (TK-10 renal) | TGI (UO-31 renal)

COc1ccc(/C=C2/CSCC3=C2NC(=S)NC3c2ccc(OC)c(OC)c2OC)c(OC)c1OC (configuration not stated)
> 100 µM: TGI (CCRF-CEM leukemia) | TGI (DU-145 prostate) | TGI (HCT-15 colon) | TGI (HS 578T breast) | TGI (MCF7 breast) | TGI (NCI-H460 lung)
61.1 µM: TGI (HT29 colon)
77.9 µM: TGI (HCC-2998 colon)
51.5 µM: TGI (SNB-19 CNS)
99.3 µM: TGI (NCI-H226 lung)
75.5 µM: TGI (TK-10 renal)

Cc1cccc(Br)[n+]1[O-]
> 100 µM: TGI (CCRF-CEM leukemia) | TGI (DU-145 prostate) | TGI (HCT-15 colon) | TGI (HS 578T breast) | TGI (HT29 colon) | TGI (MCF7 breast) | TGI (NCI-H226 lung) | TGI (NCI-H460 lung) | TGI (SNB-19 CNS) | TGI (SR leukemia) | TGI (TK-10 renal) | TGI (UO-31 renal)

Cc1cc(S(=O)(=O)N2CCNNC2=O)c(S)cc1Cl
> 100 µM: TGI (CCRF-CEM leukemia) | TGI (DU-145 prostate) | TGI (HCC-2998 colon) | TGI (HCT-15 colon) | TGI (HS 578T breast) | TGI (MCF7 breast) | TGI (NCI-H226 lung) | TGI (NCI-H460 lung) | TGI (SNB-19 CNS) | TGI (SR leukemia) | TGI (TK-10 renal) | TGI (UO-31 renal)
